From patent publication US9018194B2 (Nibon University, priority 2011, dated 2015)

Legend:
human VDR [1] = target: T1, human VDR (Homo sapiens, UniProt P11473); experiment: VDR transcription induction activity, luciferase reporter assay (mouse osteopontin VDRE) in HEK293 cells transfected with human VDR; assay type: cell-based; design: expressed in transfected cells; host or cells: HEK293 cells; conditions: for efficacy of VDR transcription induction, % of that of the natural hormone / concentration at which the highest transcription activity was shown: HEK293 cells; for efficacy of VDR transcription induction, % of that of the natural hormone: Sppx3-tk-LUC reporter, relative to 1,25(OH)2D3; for concentration at which the highest transcription activity was shown: 10^-8 M was the lowest concentration used
T1 sequence (P11473 1-427): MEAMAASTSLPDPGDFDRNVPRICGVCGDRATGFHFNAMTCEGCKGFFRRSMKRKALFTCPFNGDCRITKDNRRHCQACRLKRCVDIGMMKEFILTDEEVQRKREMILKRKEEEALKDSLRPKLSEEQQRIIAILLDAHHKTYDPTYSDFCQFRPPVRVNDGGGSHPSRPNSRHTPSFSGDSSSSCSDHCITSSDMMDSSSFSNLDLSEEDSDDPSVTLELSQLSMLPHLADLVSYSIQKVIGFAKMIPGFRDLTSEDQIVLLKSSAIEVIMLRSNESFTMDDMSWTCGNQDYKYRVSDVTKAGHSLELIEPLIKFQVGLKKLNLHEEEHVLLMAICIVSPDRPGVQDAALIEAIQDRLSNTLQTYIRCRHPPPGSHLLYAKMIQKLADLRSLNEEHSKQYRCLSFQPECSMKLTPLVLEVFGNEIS
Protocol: Briefly, HEK cells were transfected with human VDR expression vector (pCMX-VDR) and expression vectors for VDR responsive luciferase (Sppx3-tk-LUC) and β-galactosidase by the calcium phosphate method. Eight hours later, compounds were added to the cells. After culturing for 16-24 hr, cells were harvested, and the activities of luciferase and β-galactosidase were measured. Luciferase activity values were corrected with β-galactosidase activity values.

human VDR [2] = target: T1, human VDR; conditions: for VDR binding ability, rank in words: among ADTK1 through ADTK4

Compound | efficacy of VDR transcription induction, % of that of the natural hormone (human VDR [1]) [%] | concentration at which the highest transcription activity was shown (human VDR [1]) | VDR binding ability, rank in words (human VDR [2]) | type of activity at VDR (in words) (human VDR [1]; HEK293 luciferase assay, alone and in co-presence of 1,25(OH)2D3) | affinity for human VDR relative to the natural hormone 1,25(OH)2D3 (human VDR [2]; competition with [3H]-1,25(OH)2D3, 1,25(OH)2D3 = 100%) [%]
C=C1[C@H](O)CC(=C/C=C2\CCC[C@]3(C)[C@@H]([C@H](C)CC#C[C@H](O)CC45CC6CC(CC(C6)C4)C5)CC[C@@H]23)C[C@H]1O [ADTK3, (25R)-26-(1-Adamantyl)-1α,25-dihydroxy-2-methylene-23,23,24,24-tetradehydro-19,27-dinorvitamin D3] | 72 | around 10^−7 M | lowest VDR binding ability |  | 
C=C1[C@H](O)CC(=C/C=C2\CCC[C@]3(C)[C@@H]([C@H](C)CC#C[C@@H](O)CC45CC6CC(CC(C6)C4)C5)CC[C@@H]23)C[C@H]1O [ADTK4, (25S)-26-(1-Adamantyl)-1α,25-dihydroxy-2-methylene-23,23,24,24-tetradehydro-19,27-dinorvitamin D3] | 54 | around 10^−7 M |  |  | 
(25R)-25-(1-Adamantyl)-1α,25-dihydroxy-2-methylene-23,23,24,24-tetradehydro-19,26,27-trinorvitamin D3 [ADTK2] | 66 | 10^−8 M | highest VDR binding activity | partial agonist | 67
(25S)-25-(1-Adamantyl)-1α,25-dihydroxy-2-methylene-23,23,24,24-tetradehydro-19,26,27-trinorvitamin D3 [ADTK1] | 40 | around 10^−7 M |  |  | 
